The target in this experiment is T1, α-glucosidase from Saccharomyces cerevisiae.
T1 construct: gene MAL12
Put plainly: pNPG hydrolysis, absorbance […] nm. The class given is biochemical. The settings on record: substrate pNPG (50 uL of 3 mM in 200 uL), 37 °C.

Values after ≈ are worked out from the molar mass of the structure shown.

Broadly, the IC50 is the concentration that inhibits the measured activity by half. For the compound `O=c1c(O)c(-c2ccc(O)c(O)c2)oc2cc(O)cc(O)c12` [Quercetin], the 50% inhibitory concentration (IC50) was determined as 2.98 ± 0.40 µg/mL (≈ 9.86 µM).

The values are drawn from publication PMC10376420, “Antioxidant, Antidiabetic, and Anti-Obesity Properties of Apple Pulp Extracts (Malus domestica Bork): A Comparative Study of 15 Local and Commercial Cultivars from Spain” (Biology, 2023).
